Test results as given in patent publication US11420943B2, “Peptide derivatives and therapeutic activity thereof” (FLAMMA S.P.A., priority 2017, dated 2022).
Where two headings read alike, the source gives them in different places. Where a SMILES comes first, the peptide text is derived from it. [ ]: non-standard residue; d: D form. Aib = CC(C)(N)C(=O)O

Key:
[1] = reported in WO2011/080139, same test; cited from earlier work
[2] = Carbonyl-quenching activity towards HNE in vitro (residual HNE by reverse-phase chromatography); assay type: biochemical; conditions: for ACTIVITY (CARNOSINE UNIT) 1 h / HNE CONSUMPTION (%) 1 h: 1 h incubation; for ACTIVITY (CARNOSINE UNIT) 1 h / HNE CONSUMPTION (%) 1 h / ACTIVITY (CARNOSINE UNIT) 3 h / HNE CONSUMPTION (%) 3 h: HNE 50 μM, compound 1 mM, phosphate buffer 10 mM, pH 7.4, 37° C.; for ACTIVITY (CARNOSINE UNIT) 3 h / HNE CONSUMPTION (%) 3 h: 3 h incubation
Procedure: (§1) The pharmacological activity of the compounds according to the invention was determined in vitro by evaluating their carbonyl-quenching activity towards 4-hydroxy nonenal (HNE), which is known for its involvement in numerous disorders. Said activity was compared with that of L-carnosine, a compound known as a carbonyl quencher in vitro but having limited metabolic stability caused by serum carnosinase. The metabolic stability of a particularly interesting compound was also evaluated in human serum after 1 and 2 hours.
The activity was evaluated one and three hours after incubation, determining the residual HNE content by reverse-phase chromatography as previously described by Aldini G. et al. [Biochem Biophys Res Commun. 2002 Nov. 15; 298 (5):699-706]. The carbonyl-quenching activity is evaluated on the basis of the percentage of HNE reacted, compared with the HNE content in the absence of the molecule to be tested.

[3] = Stability in human serum (HPLC-MS recovery); assay type: in vitro ADME; conditions: 37° C.
Procedure: as §1
The samples taken from each matrix, suitably treated, were analysed by HPLC-MS, obtaining recovery after 1 h and 2 h.

| Compound | carbonyl-quenching activity, times greater than that of L-carnosine [1] [times] | ACTIVITY (CARNOSINE UNIT) 1 h [2] [CARNOSINE UNIT] | HNE CONSUMPTION (%) 1 h [2] [%] | ACTIVITY (CARNOSINE UNIT) 3 h [2] [CARNOSINE UNIT] | HNE CONSUMPTION (%) 3 h [2] [%] | Stability in plasma (% residual amount) 1 h ([3]; 1 h) [%] | Stability in plasma (% residual amount) 2 h ([3]; 2 h) [%] | carbonyl-quenching activity, times greater than that of L-carnosine ([2]; see Table I) [times] |
| --- | --- | --- | --- | --- | --- | --- | --- | --- |
| NCCC(=O)N[C@H](CO)Cc1cnc[nH]1 [3-amino-N-[(1S)-2-hydroxy-1-(1H-imidazol-5-yl-methyl)ethyl]propanamide] | 1.6 | – | – | – | – | – | – | – |
| NCCC(=O)N[C@@H](Cc1cnc[nH]1)C(=O)O [CARNOSINE, L-carnosine, reference compound] | – | 1.00 | 17.05 ± 1.24 | 1.00 | 42.66 ± 0.89 | – | – | – |
| CC(C)(N)CC(=O)N[C@@H](Cc1c[nH]cn1)C(=O)O [FLM-02-ACI, N-(3-amino-3,3-dimethylpropanoyl)-L-histidine] | – | 0.02 | 0.40 ± 1.73 | 0.14 | 6.05 ± 1.66 | – | – | – |
| CC(C)(N)CC(=O)N[C@H](CO)Cc1c[nH]cn1 [FLM-02-OLO, (S)-3-amino-N-(1-hydroxy-3-(1H-imidazol-4-yl)propan-2-yl)-3,3-dimethylpropanamide] | – | 0.25 | 4.09 ± 2.61 | 0.24 | 10.50 ± 2.24 | – | – | – |
| CC(C)(CN)C(=O)N[C@@H](Cc1c[nH]cn1)C(=O)O [FLM-04-ACI, N-(3-amino-2,2-dimethylpropanoyl)-L-histidine] | – | 1.76 | 30.06 ± 4.68 | 1.51 | 64.44 ± 4.37 | – | – | – |
| CC(C)(CN)C(=O)N[C@H](CO)Cc1c[nH]cn1 [FLM-04-OLO, (S)-3-amino-N-(1-hydroxy-3-(1H-imidazol-4-yl)propan-2-yl)-2,2-dimethylpropanamide] | – | 3.13 | 52.14 ± 5.56 | 2.00 | 86.47 ± 2.73 | 101.78 ± 16.20 | 100.34 ± 9.46 | 3.1 |
| CC(C)(N)C(=O)N[C@@H](Cc1c[nH]cn1)C(=O)O [FLM-05-ACI, N-(2-amino-2-methylpropanoyl)-L-histidine] (H-[Aib]-His-OH) | – | 0.33 | 5.58 ± 7.50 | 0.37 | 15.84 ± 10.65 | – | – | – |
| CC(C)(N)C(=O)N[C@H](CO)Cc1c[nH]cn1 [FLM-05-OLO, (S)-2-amino-N-(1-hydroxy-3-(1H-imidazol-4-yl)propan-2-yl)-2-methylpropanamide] | – | 0.38 | 6.40 ± 1.72 | 0.45 | 19.44 ± 2.36 | – | – | – |
| NCC(F)(F)C(=O)N[C@@H](Cc1c[nH]cn1)C(=O)O [FLM-07-ACI, N-(3-amino-2,2-difluoropropanoyl)-L-histidine] | – | 0.46 | 7.88 ± 5.41 | 0.69 | 29.42 ± 6.42 | – | – | – |
| NCC(F)(F)C(=O)N[C@H](CO)Cc1c[nH]cn1 [FLM-07-OLO, (S)-3-amino-2,2-difluoro-N-(1-hydroxy-3-(1H-imidazol-4-yl)propan-2-yl)propanamide] | – | 1 | 17.07 ± 1.76 | 0.82 | 34.93 ± 0.58 | – | – | – |
| NCC1(C(=O)N[C@@H](Cc2c[nH]cn2)C(=O)O)CC1 [FLM-09-ACI] | – | 0.81 | 13.70 ± 0.83 | 0.89 | 36.11 ± 2.87 | – | – | – |
| NCC1(C(=O)N[C@H](CO)Cc2c[nH]cn2)CC1 [FLM-09-OLO, (S)-1-(aminomethyl)-N-(1-hydroxy-3-(1H-imidazol-4-yl)propan-2-yl)cyclopropanecarboxamide] | – | 1.55 | 26.21 ± 1.04 | 1.45 | 59.09 ± 1.49 | – | – | – |
| NCC1(C(=O)N[C@@H](Cc2c[nH]cn2)C(=O)O)CCC1 [FLM-10-ACI] | – | 1.06 | 17.89 ± 1.97 | 1.11 | 45.04 ± 2.94 | – | – | – |
| NCC1(C(=O)N[C@H](CO)Cc2c[nH]cn2)CCC1 [FLM-10-OLO, (S)-1-(aminomethyl)-N-(1-hydroxy-3-(1H-imidazol-4-yl)propan-2-yl)cyclobutanecarboxamide] | – | 2.82 | 47.68 ± 3.02 | 2.08 | 84.63 ± 2.70 | – | – | – |
| NCC1(C(=O)N[C@@H](Cc2c[nH]cn2)C(=O)O)CCCC1 [FLM-11-ACI] | – | 1.41 | 23.82 ± 1.55 | 1.31 | 53.54 ± 1.10 | – | – | – |
| NCC1(C(=O)N[C@H](CO)Cc2c[nH]cn2)CCCC1 [FLM-11-OLO, (S)-1-(aminomethyl)-N-(1-hydroxy-3-(1H-imidazol-4-yl)propan-2-yl)cyclopentanecarboxamide] | – | 2.82 | 47.56 ± 0.69 | 2.06 | 83.90 ± 0.33 | – | – | – |
| CC(C)(CN)C(=O)N[C@@H](Cc1c[nH]cn1)C(=O)O [FLM-12-ACI, N-(3-amino-2,2-dimethylpropanoyl)-L-histidine] | – | 1.58 | 27.07 ± 9.77 | 1.20 | 51.35 ± 9.22 | – | – | – |
| Cn1cncc1C[C@@H](CO)NC(=O)C(C)(C)CN [FLM-12-OLO, (S)-3-amino-N-(1-hydroxy-3-(1-methyl-1H-imidazol-5-yl)propan-2-yl)-2,2-dimethylpropanamide] | – | 2.98 | 50.77 ± 3.84 | 1.64 | 70.08 ± 2.98 | – | – | – |
| CC(C)(CCN)C(=O)N[C@@H](Cc1c[nH]cn1)C(=O)O [FLM-13-ACI, N-(4-amino-2,2-dimethylbutanoyl)-L-histidine] | – | 0.69 | 11.77 ± 6.79 | 0.48 | 20.43 ± 7.94 | – | – | – |
| CC(C)(CCN)C(=O)N[C@H](CO)Cc1c[nH]cn1 [FLM-13-OLO, (S)-4-amino-N-(1-hydroxy-3-(1H-imidazol-4-yl)propan-2-yl)-2,2-dimethylbutanamide] | – | 0.62 | 10.54 ± 10.04 | 0.54 | 23.05 ± 12.28 | – | – | – |
| NCC1(C(=O)N[C@@H](Cc2c[nH]cn2)C(=O)O)CCCCC1 [FLM-14-ACI] | – | 1.71 | 29.10 ± 2.97 | 1.36 | 58.03 ± 2.37 | – | – | – |
| NCC1(C(=O)N[C@H](CO)Cc2c[nH]cn2)CCCCC1 [FLM-14-OLO, (S)-1-(aminomethyl)-N-(1-hydroxy-3-(1H-imidazol-4-yl)propan-2-yl)cyclohexanecarboxamide] | – | 2.84 | 48.36 ± 6.22 | 1.96 | 83.50 ± 5.85 | – | – | – |
